Experimental data as given in patent US6841684B2, “Imidiazoles having reduced side effects” (Allergan, Inc., priority 1997, dated 2005).
Where a name gives a salt, the structure may show the parent alone.

Target: T1, rat α2B (RNG gene) receptor (Rattus norvegicus, UniProt P19328)
T1 construct: expressed in transfected cells; host or cells: NIH-3T3 cells, calcium phosphate cotransfection
T1 sequence (P19328 1-453): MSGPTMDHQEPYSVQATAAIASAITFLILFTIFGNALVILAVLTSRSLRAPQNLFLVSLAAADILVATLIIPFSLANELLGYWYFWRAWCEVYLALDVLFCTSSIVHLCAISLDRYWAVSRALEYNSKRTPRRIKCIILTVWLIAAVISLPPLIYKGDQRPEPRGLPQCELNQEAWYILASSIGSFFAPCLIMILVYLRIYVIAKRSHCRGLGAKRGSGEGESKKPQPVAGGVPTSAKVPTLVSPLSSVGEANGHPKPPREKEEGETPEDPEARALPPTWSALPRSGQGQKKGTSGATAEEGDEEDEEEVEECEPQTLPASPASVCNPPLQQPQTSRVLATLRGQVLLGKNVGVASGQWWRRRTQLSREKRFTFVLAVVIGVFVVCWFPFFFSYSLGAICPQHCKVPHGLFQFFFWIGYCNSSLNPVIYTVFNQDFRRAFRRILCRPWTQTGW
Test: RSAT (Receptor Selection and Amplification Technology) assay, alpha 2B
Type: cell-based
Settings: ratio of maximal effect to that of standard full agonist oxymetazoline
Source text: This preferential activity can be determined in a variety of functional assays such as Cyclic AMP Production, Shimizu et al, J. Neurochem. […] In the study below, the RSAT assay on cells that have been transiently transfected with the human α2A (c10 gene), rat α2B (RNG gene) and human α2C (c4 gene) receptors was used.
The assay measures a receptor-mediated loss of contact inhibition that results in selective proliferation of receptor-containing cells in a mixed population of confluent cells. The increase in cell number is assessed with an appropriate transfected marker gene such as b-galactosidase, the activity of which can be easily measured in a 96-well format. Receptors that activate the G protein, Gq, elicit this response. Alpha2 receptors, which normally couple to Gi, activate the RSAT response when coexpressed with a hybrid Gq protein that has a Gi receptor recognition domain, called Gq/i5^2.
NIH-3T3 cells are plated at a density of 2×10^6 cells in 15 cm dishes and maintained in Dulbecco's modified Eagle's medium supplemented with 10% calf serum. One day later, cells are cotransfected by calcium phosphate precipitation with mammalian expression plasmids encoding p-SV-b-galactosidase (5-10 mg), receptor (1-2 mg) and G protein (1-2 mg). 40 mg salmon sperm DNA may also be included in the transfection mixture. Fresh media is added on the following day and 1-2 days later, cells are harvested and frozen in 50 assay aliquots. Cells are thawed and 100 ml added to […] aliquots of various concentrations of drugs in triplicate in 96-well dishes. Incubations continue 72-96 hr at 37°. After washing with phosphate-buffered saline, b-galactosidase enzyme activity is determined by adding 200 ml of the chromogenic substrate (consisting of 3.5 mM o-nitrophenyl-b-D-galactopyranoside and 0.5% nonidet P-40 in phosphate buffered saline), incubating overnight at 30° and measuring optical density at 420 nm. The absorbence is a measure of enzyme activity, which depends on cell number and reflects a receptor-mediated cell proliferation. The EC50 and maximal effect of each drug at each alpha2 receptor is determined. The efficacy or intrinsic activity is calculated as a ratio of the maximal effect of the drug to the maximal effect of a standard full agonist for each receptor subtype.

| Compound | Intrinsic Activity Relative to Oxymetazoline, Alpha 2B |
| --- | --- |
| C=CC1=CCC(Cc2c[nH]cn2)CC1 (stereo not drawn) [Example 1-A] | 0.7 |
| c1ccc2c(c1)SCCC2Cc1cnc[nH]1 (stereo not drawn) [Example 1-B] | 0.7 |
| c1ccc2c(c1)OCCC2Cc1cnc[nH]1 (stereo not drawn) [Example 1C] | 0.8 |
| CCC1=C(C)CCC(Cc2c[nH]cn2)C1 (stereo not drawn) [Example 1D] | 0.6 |
| COCC1=CCCC(Cc2c[nH]cn2)C1 (stereo not drawn) [Example 1E] | 1 |
| C1=C(Cc2c[nH]cn2)CSc2ccccc21 [Example 1F] | 0.8 |
| CC1=C(Cc2c[nH]cn2)COc2ccccc21 [Example 1G] | 0.6 |
| c1ccc2c(c1)CCCC2Cc1c[nH]cn1 (stereo not drawn) [Example 1H] | 0.6 |
| CC1=CCCCC1Cc1cnc[nH]1 (stereo not drawn) [Example 1I] | 0.8 |
| C1=C(Cc2c[nH]cn2)COc2ccccc21 [Example 1J] | 0.5 |
| C#CC1=CCC(Cc2c[nH]cn2)CC1 (stereo not drawn) [Example 1K] | 0.6 |
| C1=C(C2CC2)CCCC1Cc1c[nH]cn1 (stereo not drawn) [Example 1L] | 0.7 |
| CC1=CCCCC1Cc1c[nH]cn1 (stereo not drawn) [Example 1M] | 0.6 |
| CCC1=CCCCC1Cc1c[nH]cn1 (stereo not drawn) [Example 1N] | 0.7 |
| C#CC1=CC(Cc2c[nH]cn2)CCC1 (stereo not drawn) [Example 1O] | 0.8 |
| CCC1=CC(Cc2c[nH]cn2)CCC1 (stereo not drawn) [Example 1P] | 0.7 |
| CCC1=CC(Cc2c[nH]cn2)CC1 (stereo not drawn) [Example 1Q] | 0.75 |
| COc1ccc2c(c1)CC(Cc1c[nH]cn1)CC2.Cl (stereo not drawn) [Example B-1, 4(5)-(7-methoxy-1,2,3,4-tetrahydronaphthalen-2-ylmethyl)-1H-imidazole, hydrogen chloride salt] | 0.45 |
| COc1ccc2c(c1)C(=O)C(Cc1c[nH]cn1)CC2 (stereo not drawn) [Example B-1a, 2-(1H-imidazol-4(5)-ylmethyl)-7-methoxy-3,4-dihydro-2H-naphthalen-1-one] | 0.6 |
| O=C1/C(=C/c2c[nH]cn2)COc2ccccc21 [Example B-2a, 3-(1H-imidazol-4(5)-ylmethylene)chroman-4-one] | 0.63 |
| OC1c2ccccc2OCC1Cc1c[nH]cn1 (stereo not drawn) [Example B-2c, 3-(1H-imidazol-4(5)-ylmethyl)chroman-4-ol] | 0.65 |
| O=C1c2ccccc2CCC1Cc1c[nH]cn1 (stereo not drawn) [Example B-3a] | 0.8 |
| CC1CC(Cc2c[nH]cn2)Cc2ccccc21 (stereo not drawn) [Example B-4a, 4(5)-(4-methyl-1,2,3,4-tetrahydronaphthalen-2-ylmethyl)-1H-imidazole] | 0.75 |
| CC1CC(Cc2c[nH]cn2)C(=O)c2ccccc21 (stereo not drawn) [Example B-4b, 2-(1H-imidazol-4(5)-ylmethyl)-4-methyl-3,4-dihydro-2H-naphthalen-1-one] | 0.7 |

| Compound | Intrinsic Activity Relative to Oxymetazoline, Alpha 2B |
| --- | --- |
| O=C1/C(=C/c2c[nH]cn2)CSc2ccccc21 [Example B-5a, 3-(1H-imidazol-4(5)-ylmethylene)thiochroman-4-one] | 0.5 |
| O=C1c2ccccc2SCC1Cc1c[nH]cn1 (stereo not drawn) [Example B-5b, 3-(1H-imidazol-4(5)-ylmethyl)thiochroman-4-one] | 0.5 |
| O=C1/C(=C/c2c[nH]cn2)Cc2ccccc21 [Example B-7a, 2-(1-H-imidazol-4(5)-ylmethylene)indan-1-one] | 0.3 |
| O=C1c2ccccc2CC1Cc1c[nH]cn1 (stereo not drawn) [Example B-7b, 2-(1H-imidazol-4(5)-ylmethyl)indan-1-one] | 0.3 |
| c1ccc2c(c1)CC(Cc1c[nH]cn1)C2 [Example B-7c, 4(5)-indan-2-ylmethyl-1H-imidazole] | 0.9 |
| Cc1ccc2c(c1)C(=O)C(Cc1c[nH]cn1)CC2 (stereo not drawn) [Example B-8a, 2-(1-H-imidazol-4(5)-ylmethyl)-7-methyl-3,4-dihydro-2H-naphthalen-1-one] | 0.4 |
| Cc1ccc2c(c1)CC(Cc1c[nH]cn1)CC2.Cl (stereo not drawn) [Example B-8b, 4(5)-(7-methyl-1,2,3,4-tetrahydronaphthalen-2-ylmethyl)-1H-imidazole, hydrogen chloride salt] | 0.6 |
| Cl.c1nc(CC2CCC3SCCC3C2)c[nH]1 (stereo not drawn) [Example B-9c, 5-(octahydrobenzo[b]thiophen-5-ylmethyl)-1H-imidazole, hydrochloride] | 0.3 |
| CC1(C)CC(Cc2c[nH]cn2)Cc2ccccc21 (stereo not drawn) [Example B-10, 4(5)-(4,4-dimethyl-1,2,3,4-tetrahydronaphthalen-2-ylmethyl)-1H-imidazole] | 0.3 |
| c1ccc2c(c1)CCCC(Cc1c[nH]cn1)C2 (stereo not drawn) [Example B-11a, 4(5)-(6,7,8,9-tetrahydro-5H-benzocyclohepten-6-ylmethyl)-1H-imidazole] | 0.9 |
| O=C1/C(=C/c2c[nH]cn2)CCCc2ccccc21 [Example B-11b, 6-(1H-imidazol-4(5)-ylmethylene)-6,7,8,9-tetrahydrobenzocyclohepten-5-one] | 0.3 |
| c1nc(Cc2ccoc2)c[nH]1 [Example C-6, 4(5)-furan-3-ylmethyl-1H-imidazole] | 0.67 |
| c1ccc2oc(Cc3c[nH]cn3)cc2c1 [Example C-10, 4(5)-benzofuran-2-ylmethyl-1H-imidazole] | 0.48 |
| CCc1ccc(Cc2c[nH]cn2)o1 [Example C-11, 4(5)-(5-ethylfuran-2-ylmethyl)-1H-imidazole] | 0.5 |
| Brc1csc(Cc2c[nH]cn2)c1 [Example C-12, 4(5)-(4-bromothiophen-2-ylmethyl)-1H-imidazole] | 1.3 |
| c1ccc(-c2csc(Cc3c[nH]cn3)c2)cc1 [Example C-13, 4(5)-(4-phenylthiophen-2-ylmethyl)-1H-imidazole] | 0.5 |
| Cc1csc(Cc2c[nH]cn2)c1.Cl [Example C-14, 4(5)-(4-methylthiophen-2-ylmethyl)-1H-imidazole, hydrochloride salt] | 0.7 |
| Cc1ccccc1C1C2CCC(C2)C1/N=C1/NCCO1 [Example D-2, oxazolidin-2-ylidene-(3-o-tolylbicyclo[2.2.1]hept-2-yl) amine] | 0.75 |
| C1CO/C(=N\C2CC3CCC2C3)N1 [Example D-3, bicyclo[2.2.1]hept-2-yl oxazolidin-2-ylidene amine] | 0.4 |
| c1nc(Cc2cc3c(s2)CCCC3)c[nH]1 [Example K-1, 4(5)-(4,5,6,7-tetrahydrobenzo[b]thiophen-2-ylmethyl)-1H-imidazole] | 0.53 |
| CC(C)(C)c1ccc(Cc2c[nH]cn2)o1 [Example K-2, 4(5)-(5-tert-butylfuran-2-ylmethyl)-1H-imidazole] | 0.7 |
| c1nc(Cc2cc3c(s2)SCCC3)c[nH]1 [Example K-3, 4(5)-(5,6-dihydro-4H-thieno[2,3-b]thiopyran-2-ylmethyl)-1H-imidazole] | 0.37 |
| C1=C2CCCCC2CCC1Cc1c[nH]cn1 (stereo not drawn) [Example N-2, 4(5)-(2,3,4,4a,5,6,7,8-octahydronaphthalen-2-ylmethyl)-1H-imidazole] | 0.5 |
| c1nc(CC2CCC3=C(CCCC3)C2)c[nH]1 (stereo not drawn) [Example N-3, 4(5)-(1,2,3,4,5,6,7,8-octahydronaphthalen-2-ylmethyl)-1H-imidazole, fumarate] | 0.75 |
